Experimental data from US7772260B2, “Imidazo[2,1-b]-1,3,4-thiadiazole sulfonamides” (Aegera Therapeutics Inc., priority 2001, dated 2010).
Where “and” joins values, the source holds several entries; their conditions need not be identical. Equal values may be shown once. Entries after “also recorded” stand apart in the source; their conditions may differ.

Assays:
CA II = CA II (Homo sapiens, UniProt P00918); experiment: CA II inhibition; assay type: biochemical; settings: read-out: IC(50), CA II inhibition
Experimental: CA II inhabition was measured using the protocol described by Pocker, Y.'Stone, J. Biochemistry 1967, 6, 668.

SCG neurons [1] = experiment: Protection of SCG neurons from anti-NGF killing; assay type: cell-based, Sprague Dawley rats; settings: Rattus norvegicus, Neuron; anti-NGF antibody, serum and NGF free 48 hours, Alamar Blue; +/−1 uM; read-out: IC(50), rescue from anti-NGF killing of SCG neurons
Experimental: Neurotrophins are critical to the growth, development, and survival of small fiber neurons of the PNS. SCG neurons are neurons of the PNS that undergo apoptosis upon NGF withdrawal. In a typical experiment SCG neurons are cultured in the presence of NGF, which induces survival and neurite out-growth. After 5 days the NGF is removed by either the addition of anti-NGF polyclonal antibody (Sigma) or by repeated washings (4 times) with NGF free media, resulting in the apoptosis of up to 90% of the neurons after 48 hours, as measured by MTS staining.
After 4 days the cells were treated with anti-NGF antibody (Sigma). At this time compound was added and the cells were maintained serum and NGF free for 48 hours, at which time viability was assessed using Alamar Blue (Medicorp) staining.

SCG neurons [2] = experiment: cells; assay type: cell-based, Sprague Dawley rats; settings: Rattus norvegicus, Neuron; Taxol™ (50 ng/mL), viability 48 hours later, MTS; read-out: IC(50), protection of SCG neurons from Taxol killing
sciatic nerve = experiment: Sciatic nerve crush injury model; assay type: in vivo, Sprague Dawley rats; settings: for functional recovery after sciatic nerve crush: 1 and 10 mg/kg
Description: The sciatic nerve crush model is a representative model of axonal repair and regeneration. The sciatic nerve is physically crushed with forceps at the mid-thigh; only the right leg is injured, the left leg serving as a control. The axons die from the crush point to their point of innervation. Functional loss of the axons is rapidly observed as the animals drag their right leg and the toes of the right leg no longer spread. Recovery is observed in approximately 28 days as the animals regain use of their right leg. More quantitative measurements of recovery include toe spread measurements between the digits 1 and 5 and digits 2 and 4, gait analysis and electrical conductivity from the toes to the injury site (see Example 161). Male Sprague Dawley rats were anaesthetized (halothane and buprenorphine) and the right hind leg was blunt dissected to expose the sciatic nerve at mid-thigh. The nerve was crushed twice for a total of 30 seconds using No.7 Dumont jeweller's forceps. The incision is sutured and the animals are allowed to recover for 28 days. Functional recovery was measured by gait, nerve conductance and toe spread measurements between digits 1 and 5 and digits 2 and 4.

cortical neurons = experiment: Neuroprotection of cortical neurons in the presence of beta-amyloid; assay type: cell-based, Sprague Dawley rats; settings: 10 uM compound, 10 uM 25-35 amyloid beta peptide, 48 hour
Experimental: Primary neuronal/glial cortical cultures were established from postnatal day 1 Sprague Dawley rats. Cerbral cortices were isolated and dissociated with 0.25% trypsin for 20 minutes at 37 degrees. The tissue was then triturated in PBS containing 0.1% bovine serum albumin and 0.2 mg/ml DNAse. Cells were plated in poly D-lysine coated 96 well plates at a density of 1e6 cells per mL. Cultures were maintained at 37 degrees in 5% C02/95% air for 2 weeks in Neurobasal (Gibco) supplemented with B27, glutamine, and penicillin/streptomycin. 5ng/mL AraC was added after 48 hours. After 2 weeks cells were exposed to 10 uM 25-35 amyloid beta peptide with and without 10 uM compound 76. After 2 days of treatment apoptotic cells were detected with Cy3-conjugated annexin V (Sigma).

Sprague Dawley rats = assay type: in vivo; settings: rat, in vivo, 9 mg/kg
Experimental: Taxol™ commonly causes dose dependent peripheral neuropathies during cancer treatment. […] All of the Taxol™ treated animals developed peripheral neuropathies, characterized by ‘tip toe walking’. The extent of this neuropathy was analyzed by quantifying the refracted light captured by a video camera as the animals walked over a glass plate.
Adult Sprague Dawley rats were treated with Taxol™ (IP, 9 mg/kg in Cremophor EL and ethanol) twice weekly for 3 weeks (J. Neuro-Oncology (1999) 41: 107-116). Compound was administered I hour prior to Taxol™ treatment (IP, 1, 5 and 10 mg/kg in hydroxypropyl-β-cyclodextrin). Taxol™ treated control animals were treated with saline solution at the same time of Compound treated animals. Non-treated control animals were treated with saline solution as above. Weight gain was measured every second day, starting at Day 1. Gait analysis was measured by quantifying the refracted light captured by a video camera as the animals walked over a glass plate, 2 days after the final Taxol™ treatment (Physiology and Behavior (1994), 55(4): 723-726; Med. Sci. Res. (1988) 16: 901-902). […] H/M wave recovery was analyzed using standard procedures 2 days after the final Taxol™ treatment (Muscle Nerve (1998) 21: 1405-1413; Annals of Neurology (1998) 43 (1): 46-55).
Male Spraugue Dawley rats were treated with 50% HPDC vehicle (veh/veh), compound I dissolved in 50% HPDC at 1, 5, or 10 mg/kg (veh/1, veh/5, veh/10, respectively), or Taxol™ (9 mg/kg)+compound 1 dissolved in 50% HPDC at 1, 5, and 10 mg/kg (Tax/1, Tax/5, Tax/10) according to the dosing regime described in Example 160. Weight measurements were made ever other day.
Two days after the completion of drug treatments animal walking gait was analyzed according to a) total imprint area, and b) total number of contact points.
FIG. 6 illustrates the effect of Compound 1 on H-reflex amplitude, a measurement of H/M wave disturbance induced by Taxol™. Two days after the completion of drug treatments, the dorsal root ganglia and attached nerves were dissected bilaterally from L4 and L5 and their H/M wave conductance measured.

SCG neurons [3] = experiment: In vitro protection of SCG neurons from vincristine killing; assay type: cell-based, Sprague Dawley rats; settings: vincristine 100 ng/mL
Description: Similarly, vincristine and vinblastine are commonly used anti-tumour agents whose mode of action involve tubulin binding.

Row | IC50 (CA II) | Structure (SMILES) | IC50 (SCG neurons [1]) [µM] | IC50 (SCG neurons [2]) [µM] | other results
1 | 1.61 µM and 2.19 µM | NS(=O)(=O)c1nn2cc(-c3ccc(-c4ccccc4)cc3)nc2s1 [Compound 72, 6-(Biphenyl)imidazo[2,1-b]-1,3,4-thiadiazole-2-sulfonamide] | 17 | 10 | –
2 | 1.68 µM | NS(=O)(=O)c1nn2cc(-c3ccc(-c4ccc(CO)cc4)cc3)nc2s1 [Compound 74, 6-(4-(hydroxymethylphenyl)phenyl)imidazo[2,1-b]-1,3,4-thiadiazole-2-sulfonamide] | 20 | 7 | –
3 | 0.441 µM | COc1ccccc1-c1ccc(-c2cn3nc(S(N)(=O)=O)sc3n2)cc1 [Compound 75, 6-(4-(2-methoxyphenyl)phenyl)imidazo[2,1-b]-1,3,4-thiadiazole-2-sulfonamide] | 10 | 5 | –
4 | 5.43 µM | NS(=O)(=O)c1nn2cc(-c3ccc(-c4ccc(C(F)(F)F)cc4)cc3)nc2s1 [Compound 82, 6-(4-(4-trifluoromethylphenyl)phenyl)imidazo[2,1-b]-1,3,4-thiadiazole-2-sulfonamide] | 25 | 2 | –
5 | 0.128 µM | NS(=O)(=O)c1nn2cc(-c3ccc(Oc4ccccc4)cc3)nc2s1 [Compound 87, 6-(4-phenoxyphenyl)imidazo[2,1-b]-1,3,4-thiadiazole-2-sulfonamide] | 10 | 5 | –
6 | 0.914 µM | NS(=O)(=O)c1nn2cc(-c3ccc(Oc4ccc([N+](=O)[O-])cc4)cc3)nc2s1 [Compound 99, 6-(4-(4-nitrophenoxy)phenyl)imidazo[2,1-b]-1,3,4-thiadiazole-2-sulfonamide] | 7 | 2 | –
7 | 53.2 µM | NS(=O)(=O)c1nn2cc(-c3cc4ccccc4o3)nc2s1 [Compound 111, 6-(Benzo[b]furan-2-yl)imidazo[2,1-b]-1,3,4-thiadiazole-2-sulfonamide] | 7 | 2 | functional recovery after sciatic nerve crush (sciatic nerve): improved recovery
8 | – | CC(=O)O[C@H]1C(=O)[C@@]2(C)[C@H]([C@H](OC(=O)c3ccccc3)[C@]3(O)C[C@H](OC(=O)[C@H](O)[C@@H](NC(=O)c4ccccc4)c4ccccc4)C(C)=C1C3(C)C)[C@]1(OC(C)=O)CO[C@@H]1C[C@@H]2O [Taxol™, reference compound] | – | – | reduction in foot-pad contact as compared to control animals (Sprague Dawley rats): 46%; weight gain over a thirteen day period (Sprague Dawley rats): no weight gain
9 | – | CC[C@]1(O)C[C@H]2CN(CCc3c([nH]c4ccccc34)[C@@](C(=O)OC)(c3cc4c(cc3OC)N(C=O)[C@H]3[C@@](O)(C(=O)OC)[C@H](OC(C)=O)[C@]5(CC)C=CCN6CC[C@]43[C@@H]65)C2)C1 [vincristine, reference compound] | – | – | apoptosis of cultured SCG neurons (SCG neurons [3]): ≥ 80%

Row | Structure (SMILES) | IC50 (CA II) | IC50 (SCG neurons [1]) [µM] | IC50 (SCG neurons [2]) [µM] | other results
10 | COc1cccc(-c2ccc(-c3cn4nc(S(N)(=O)=O)sc4n3)cc2)c1 [Compound 76, 6-(4-(3-methoxyphenyl)phenyl)imidazo[2,1-b]-1,3,4-thiadiazole-2-sulfonamide] | 0.526 µM | 5 | 2 | functional recovery after sciatic nerve crush (sciatic nerve): improved recovery; recovery in toe spread area (inner toe spread) (sciatic nerve; versus vehicle control): induced increased recovery; annexin V positive (apoptotic) cells (cortical neurons): prevents the occurrence of annex in V stained cells; also recorded: prevented the appearance of annexinV positive cells
11 | NS(=O)(=O)c1nn2cc(-c3ccc(-c4cccc(C(F)(F)F)c4)cc3)nc2s1 [Compound 81, 6-(4-(3-trifluoromethylphenyl)phenyl)imidazo[2,1-b]-1,3,4-thiadiazole-2-sulfonamide] | 1.58 µM | 5 | 3 | –
